In patent US10913738B2 (BRISTOL-MYERS SQUIBB COMPANY, priority 2017, dated 2021) one finds IC50 data, which are given here for 25 compounds.

The target in test [1] is T1, His-GST-TVMV-hRIPK1(1-324) (Homo sapiens, UniProt Q13546).
T1 construct: The coding region of human RIPK1(1-324) flanked by NdeI site at 5′ end; made in house; host or cells: Spodoptera frugiperda (Sf9) insect cells, baculovirus
T1 sequence (Q13546 1-324): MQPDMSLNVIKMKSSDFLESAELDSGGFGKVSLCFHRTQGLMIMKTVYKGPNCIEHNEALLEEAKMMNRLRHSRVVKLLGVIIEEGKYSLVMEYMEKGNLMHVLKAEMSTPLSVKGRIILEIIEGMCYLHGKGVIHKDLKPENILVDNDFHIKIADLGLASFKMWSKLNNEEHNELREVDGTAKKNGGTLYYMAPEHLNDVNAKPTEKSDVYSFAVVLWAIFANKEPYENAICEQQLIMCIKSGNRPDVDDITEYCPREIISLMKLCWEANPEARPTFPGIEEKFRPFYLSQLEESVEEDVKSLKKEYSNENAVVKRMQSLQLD
Kind of test: RIPK1 HTRF Binding Assay. (In general: Time-resolved FRET reads energy transfer from a long-lived donor to a nearby acceptor.)

Test [2] deals with MLKL phosphorylation in HT29-L23 human colorectal adenocarcinoma cells. Briefly: MLKL Phosphorylation High-Content Assay. In kind it is cell-based. Particulars: Homo sapiens. Summed up: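 IC50 and Ymax obtained by 4-parameter logistic fitting of MLKL phosphorylation, measured as mean circ-ring average intensity ratio from high-content images. Staining used an anti-phospho-S358 MLKL antibody overnight at 4° C., following six-hour cell incubation at 37° C.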

[3] abbreviates: x marks IC50 class <20 nM, read-out: RIPK1 HTRF binding <20 nM.
Where [4] appears, read: x marks IC50 class <20 nM, read-out: pMLKL cell activity <20 nM.
Setting [5] is: x marks IC50 class 20-200 nM, read-out: pMLKL cell activity 20-200 nM.
Setting [6] is: x marks IC50 class 20-200 nM, read-out: RIPK1 HTRF binding 20-200 nM.
Where [7] appears, read: x marks IC50 class >200 nM, read-out: pMLKL cell activity >200 nM.

Each structure is given as a SMILES string. Like-named read-outs stand apart in the source and are kept apart here.

With `Cc1ncc(-c2ccn3nc(N)nc3c2)cc1C(=O)NCc1ccccc1OC1CCCC1` [Example 249, 5-{2-amino-[1,2,4]triazolo[1,5-a]pyridin-7-yl}-N-{[2-(cyclopentyloxy)phenyl]methyl}-2-methylpyridine-3-carboxamide], the IC50 in test [1] (setting [3]) and in test [2] (setting [4]) was less than 20 nM each time.

Consider `Nc1nc2cc(-c3cncc(C(=O)NCc4ccccc4OC4CCCC4)c3)ccn2n1` [Example 43, 5-{2-Amino-[1,2,4]triazolo[1,5-a]pyridin-7-yl}-N-{[2-(cyclopentyloxy)phenyl]methyl}pyridine-3-carboxamide], for which the figures for the IC50 in test [1] (setting [3]) and in test [2] (setting [5]) were less than 20 nM and 20 to 200 nM, respectively.

As for `COc1nc(C)c(-c2ccn3nc(N)nc3c2)cc1C(=O)NCc1ccccc1OCC1CCCCC1` [Example 7, 5-{2-Amino-[1,2,4]triazolo[1,5-a]pyridin-7-yl}-N-{[2-(cyclohexylmethoxy)phenyl]methyl}-2-methoxy-6-methylpyridine-3-carboxamide], the IC50 was less than 20 nM in test [1] (setting [3]) and 20 to 200 nM in test [2] (setting [5]).

As for `CNc1ncc(-c2ccn3nc(N)nc3c2)cc1C(=O)NCc1ccccc1Sc1ccccc1CO` [Example 57], the IC50 was less than 20 nM in test [1] (setting [3]) and 20 to 200 nM in test [2] (setting [5]).

As to `COc1ncc(-c2ccn3nc(N)nc3c2)cc1C(=O)NCCC(O)c1ccc(F)c(F)c1` (centres unmarked) [Example 77, 5-{2-Amino-[1,2,4]triazolo[1,5-a]pyridin-7-yl}-N-[3-(3,4-difluorophenyl)-3-hydroxypropyl]-2-methoxypyridine-3-carboxamide], the IC50 in test [1] (setting [6]) and in test [2] (setting [5]) was 20 to 200 nM each time.

Take `Cc1ncc(-c2ccn3nc(N)nc3c2)cc1C(=O)NCc1ncccc1OCC1CCC1` [Example 236, 5-{2-amino-[1,2,4]triazolo[1,5-a]pyridin-7-yl}-N-{[3-(cyclobutylmethoxy)pyridin-2-yl]methyl}-2-methypyridine-3-carboxamide]: the IC50 in test [1] (setting [6]) and in test [2] (setting [5]) was 20 to 200 nM throughout.

As to `COc1ncc(-c2ccn3nc(N)nc3c2)nc1C(=O)NCCC(C)c1ccccc1` (centres unmarked) [Example 385, 6-(2-amino-[1,2,4]triazolo[1,5-a]pyridin-7-yl)-3-methoxy-N-(3-phenylbutyl)pyrazine-2-carboxamide], the IC50 in test [1] (setting [6]) was 20 to 200 nM; in test [2] (setting [7]) it was greater than 200 nM.

In the case of `Cc1cnc(-c2ccn3nc(N)nc3c2)cc1C(=O)NCc1cc(C(F)(F)F)ccc1F` [Example 398, 2-(2-amino-[1,2,4]triazolo[1,5-a]pyridin-7-yl)-N-(2-fluoro-5-(trifluoromethyl)benzyl)-5-methylisonicotinamide], the IC50 in test [1] (setting [6]) and in test [2] (setting [5]) was 20 to 200 nM throughout.

For the compound `Nc1nc2cc(-c3cncc(C(=O)NCc4c(F)cccc4OC4CCCC4)c3)ccn2n1` [Example 40, 5-{2-Amino-[1,2,4]triazolo[1,5-a]pyridin-7-yl}-N-{[2-(cyclopentyloxy)-6-fluorophenyl]methyl}pyridine-3-carboxamide], the IC50 in test [1] (setting [3]) was less than 20 nM; in test [2] (setting [5]) it was 20 to 200 nM.

For the compound `COc1ncc(-c2ccn3nc(N)nc3c2)cc1C(=O)NCc1c(F)cccc1OCC1CCC1` [Example 146, 5-{2-amino-[1,2,4]triazolo[1,5-a]pyridin-7-yl}-N-{[2-(cyclobutylmethoxy)-6-fluorophenyl]methyl}-2-methoxypyridine-3-carboxamide], the IC50 in test [1] (setting [3]) and in test [2] (setting [4]) was less than 20 nM each time.

Take `C[C@@H](NC(=O)c1cc(-c2ccn3nc(N)nc3c2)cnc1Cl)c1cc(OC(F)(F)F)ccc1F` [Example 324, (R)-5-(2-amino-[1,2,4]triazolo[1,5-a]pyridin-7-yl)-2-chloro-N-(1-(2-fluoro-5-(trifluoromethoxy)phenyl)ethyl)nicotinamide]: the IC50 in test [1] (setting [3]) was less than 20 nM; in test [2] (setting [5]), 20 to 200 nM.

On to `COc1cnc(-c2ccn3nc(N)nc3c2)cc1C(=O)NCc1cc(OC(F)(F)F)ccc1F` [Example 388, 2-(2-amino-[1,2,4]triazolo[1,5-a]pyridin-7-yl)-N-(2-fluoro-5-(trifluoromethoxy)benzyl)-5-methoxyisonicotinamide], for which the IC50 in test [1] (setting [6]) and in test [2] (setting [5]) was 20 to 200 nM each time.

For the compound `COc1nc(C)c(-c2ccn3nc(N)nc3c2)cc1C(=O)NCc1ncccc1OCC1CCCC1` [Example 203, 5-{2-amino-[1,2,4]triazolo[1,5-a]pyridine-7-yl}-N-{[3-(cyclopentylmethoxy)pyridin-2-yl]methyl}-2-methoxy-6-methylpyridine-3-carboxamide], the IC50 in test [1] (setting [3]) is less than 20 nM; in test [2] (setting [5]), 20 to 200 nM.

`Cc1nc(C)c(-c2ccn3nc(N)nc3c2)cc1C(=O)NCc1c(F)cccc1OCC(F)(F)F` [Example 291, 5-(2-amino-[1,2,4]triazolo[1,5-a]pyridin-7-yl)-N-(2-fluoro-6-(2,2,2-trifluoroethoxy)benzyl)-2,6-dimethylnicotinamide]: the IC50 in test [1] (setting [6]) and in test [2] (setting [5]) was 20 to 200 nM throughout.

On to `Nc1nc2cc(-c3cc(C(=O)NCc4cc(F)ccc4OC(F)(F)F)cnc3Cl)ccn2n1` [Example 369, 5-(2-amino-[1,2,4]triazolo[1,5-a]pyridin-7-yl)-6-chloro-N-(5-fluoro-2-(trifluoromethoxy)benzyl)nicotinamide], for which the figures for the IC50 in test [1] (setting [3]) and in test [2] (setting [5]) were less than 20 nM and 20 to 200 nM, respectively.

Regarding `Cc1ncc(-c2ccn3nc(N)nc3c2)cc1C(=O)NCc1c(F)cccc1OCC1CC1` [Example 245, 5-{2-amino-[1,2,4]triazolo[1,5-a]pyridin-7-yl}-N-{[2-(cyclopropylmethoxy)-6-fluorophenyl]methyl}-2-methylpyridine-3-carboxamide], the IC50 is less than 20 nM in test [1] (setting [3]) and 20 to 200 nM in test [2] (setting [5]).

In the case of `Cc1ccc(-c2ccn3nc(N)nc3c2)nc1C(=O)NCc1cc(OC(F)(F)F)ccc1F` [Example 405, 6-(2-amino-[1,2,4]triazolo[1,5-a]pyridin-7-yl)-N-(2-fluoro-5-(trifluoromethoxy)benzyl)-3-methylpicolinamide], the IC50 in test [1] (setting [6]) is 20 to 200 nM; in test [2] (setting [7]), greater than 200 nM.

For the compound `Nc1nc2cc(-c3cnc(Cl)c(C(=O)NCc4ccc(F)cc4OCC4CC4)c3)ccn2n1` [Example 1, 5-(2-Amino-[1,2,4]triazolo[1,5-a]pyridin-7-yl)-2-chloro-N-([2-(cyclopropylmethoxy)-4-fluorophenyl]methyl)pyridine-3-carboxamide], the IC50 in test [1] (x marks IC50 class >200 nM, read-out: RIPK1 HTRF binding >200 nM) is greater than 200 nM; in test [2] (setting [7]), greater than 200 nM.

For `Cc1nc(Cl)c(C(=O)N[C@H](C)c2cc(OC(F)(F)F)ccc2F)cc1-c1ccn2nc(N)nc2c1` [Example 323, (R)-5-(2-amino-[1,2,4]triazolo[1,5-a]pyridin-7-yl)-2-chloro-N-(1-(2-fluoro-5-(trifluoromethoxy)phenyl)ethyl)-6-methylnicotinamide], the IC50 in test [1] (setting [6]) and in test [2] (setting [5]) was 20 to 200 nM each time.

`COc1ncc(-c2ccn3nc(N)nc3c2)cc1C(=O)NCc1cc(F)cc(F)c1OC1COC1` [Example 364, 5-(2-amino-[1,2,4]triazolo[1,5-a]pyridin-7-yl)-N-(3,5-difluoro-2-(oxetan-3-yloxy)benzyl)-2-methoxynicotinamide]: the IC50 in test [1] (setting [3]) is less than 20 nM; in test [2] (setting [5]), 20 to 200 nM.

As to `COc1ncc(-c2ccn3nc(N)nc3c2)cc1C(=O)NCc1cc(C(F)(F)F)ccc1F` [Example 116, 5-{2-amino-[1,2,4]triazolo[1,5-a]pyridin-7-yl}-N-{[2-fluoro-5-(trifluoromethyl)phenyl]methyl}-2-methoxypyridine-3-carboxamide], the IC50 in test [1] (setting [6]) and in test [2] (setting [5]) was 20 to 200 nM each time.

Consider `COc1nc(C)c(-c2ccn3nc(N)nc3c2)cc1C(=O)NCc1c(F)cccc1OCC1CCC1` [Example 214, 5-{2-amino-[1,2,4]triazolo[1,5-a]pyridin-7-yl}-N-{[2-(cyclobutylmethoxy)-6-fluorophenyl]methyl}-2-methoxy-6-methylpyridine-3-carboxamide], for which the IC50 in test [1] (setting [3]) and in test [2] (setting [4]) was less than 20 nM each time.

On to `COc1ncc(-c2ccn3nc(N)nc3c2)cc1C(=O)NCc1ccc(F)cc1OC1CCCC1` [Example 51, 5-{2-Amino-[1,2,4]triazolo[1,5-a]pyridin-7-yl}-N-{[2-(cyclopentyloxy)-4-fluorophenyl]methyl}-2-methoxypyridine-3-carboxamide], for which the IC50 was less than 20 nM in test [1] (setting [3]) and 20 to 200 nM in test [2] (setting [5]).

`CC(CCNC(=O)c1cc(-c2ccn3nc(N)nc3c2)cnc1N)c1ccccc1` (centres unmarked) [Example 65, 2-Amino-5-{2-amino-[1,2,4]triazolo[1,5-a]pyridin-7-yl}-N-(3-phenylbutyl)pyridine-3-carboxamide]: the IC50 in test [1] (setting [3]) is less than 20 nM; in test [2] (setting [5]), 20 to 200 nM.

`Cc1ncc(-c2ccn3nc(N)nc3c2)cc1C(=O)NCc1cccc(OC(F)(F)F)c1` [Example 246, 5-{2-amino-[1,2,4]triazolo[1,5-a]pyridin-7-yl}-2-methyl-N-{[3-(trifluoromethoxy)phenyl]methyl}pyridine-3-carboxamide]: the IC50 was 20 to 200 nM in test [1] (setting [6]) and greater than 200 nM in test [2] (setting [7]).
